Source: ChEMBL document CHEMBL5291721, “A preclinical secondary pharmacology resource illuminates target-adverse drug reaction associations of marketed drugs” (Nat Commun, 2023)

Key:
[1] = target: 3',5'-cyclic-AMP phosphodiesterase 4D (Homo sapiens, UniProt Q08499); assay type: functional
[2] = target: Adenosine receptor A2a (Homo sapiens, UniProt P29274)
[3] = target: T1, Progesterone receptor (Homo sapiens, UniProt P06401); assay type: functional
T1 sequence (P06401 whole entry): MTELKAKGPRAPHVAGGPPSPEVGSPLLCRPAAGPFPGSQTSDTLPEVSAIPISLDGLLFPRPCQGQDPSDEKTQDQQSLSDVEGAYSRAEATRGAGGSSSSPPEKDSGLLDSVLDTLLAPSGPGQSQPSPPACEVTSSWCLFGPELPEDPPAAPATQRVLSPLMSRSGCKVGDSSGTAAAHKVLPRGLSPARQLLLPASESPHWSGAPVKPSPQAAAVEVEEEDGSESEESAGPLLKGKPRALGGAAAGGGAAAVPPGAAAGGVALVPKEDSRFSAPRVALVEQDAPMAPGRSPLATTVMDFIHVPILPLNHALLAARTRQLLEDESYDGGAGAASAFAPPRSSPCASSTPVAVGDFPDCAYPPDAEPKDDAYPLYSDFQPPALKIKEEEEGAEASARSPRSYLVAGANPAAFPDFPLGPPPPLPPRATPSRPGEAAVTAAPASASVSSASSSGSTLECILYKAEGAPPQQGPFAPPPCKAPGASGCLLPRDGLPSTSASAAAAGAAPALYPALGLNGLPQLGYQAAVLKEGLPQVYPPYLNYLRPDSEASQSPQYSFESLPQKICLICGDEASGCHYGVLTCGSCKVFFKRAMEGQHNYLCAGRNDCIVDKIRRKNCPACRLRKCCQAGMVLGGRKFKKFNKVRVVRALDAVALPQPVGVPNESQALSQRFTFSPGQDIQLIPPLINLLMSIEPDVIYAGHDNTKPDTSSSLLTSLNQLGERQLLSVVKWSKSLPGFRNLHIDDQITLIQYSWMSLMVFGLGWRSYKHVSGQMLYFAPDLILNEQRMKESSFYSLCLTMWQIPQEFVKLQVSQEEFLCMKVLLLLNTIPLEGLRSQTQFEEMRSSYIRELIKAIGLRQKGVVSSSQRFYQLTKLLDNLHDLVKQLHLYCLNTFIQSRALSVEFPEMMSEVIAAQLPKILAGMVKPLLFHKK

[4] = target: T2, Alpha-2A adrenergic receptor (Homo sapiens, UniProt P08913)
T2 sequence (P08913 whole entry): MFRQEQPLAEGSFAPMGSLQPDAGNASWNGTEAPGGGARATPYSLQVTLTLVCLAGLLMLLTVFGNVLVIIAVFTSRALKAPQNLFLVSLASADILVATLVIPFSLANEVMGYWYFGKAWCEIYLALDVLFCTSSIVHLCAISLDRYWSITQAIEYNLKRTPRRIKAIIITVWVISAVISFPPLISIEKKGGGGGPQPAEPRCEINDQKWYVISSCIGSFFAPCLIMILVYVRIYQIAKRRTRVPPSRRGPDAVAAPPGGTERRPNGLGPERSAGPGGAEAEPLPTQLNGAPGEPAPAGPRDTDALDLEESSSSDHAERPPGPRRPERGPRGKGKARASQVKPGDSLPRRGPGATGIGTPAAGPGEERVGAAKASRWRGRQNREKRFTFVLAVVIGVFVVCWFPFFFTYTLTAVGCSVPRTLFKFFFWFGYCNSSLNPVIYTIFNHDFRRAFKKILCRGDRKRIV

[5] = target: T3, Endothelin-1 receptor (Homo sapiens, UniProt P25101)
T3 sequence (P25101 whole entry): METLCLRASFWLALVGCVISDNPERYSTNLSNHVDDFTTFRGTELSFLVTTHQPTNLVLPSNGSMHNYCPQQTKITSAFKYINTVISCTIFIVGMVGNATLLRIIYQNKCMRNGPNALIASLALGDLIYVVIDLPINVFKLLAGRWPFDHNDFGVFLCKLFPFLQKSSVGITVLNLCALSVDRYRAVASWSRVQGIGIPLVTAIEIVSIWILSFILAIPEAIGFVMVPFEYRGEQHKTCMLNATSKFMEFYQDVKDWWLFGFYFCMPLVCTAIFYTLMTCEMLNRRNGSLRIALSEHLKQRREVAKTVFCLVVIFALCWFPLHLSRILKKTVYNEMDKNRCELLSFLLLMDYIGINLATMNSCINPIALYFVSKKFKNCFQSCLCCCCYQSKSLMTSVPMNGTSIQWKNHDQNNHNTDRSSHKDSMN

[6] = target: T4, B2 bradykinin receptor (Homo sapiens, UniProt P30411)
T4 sequence (P30411 whole entry): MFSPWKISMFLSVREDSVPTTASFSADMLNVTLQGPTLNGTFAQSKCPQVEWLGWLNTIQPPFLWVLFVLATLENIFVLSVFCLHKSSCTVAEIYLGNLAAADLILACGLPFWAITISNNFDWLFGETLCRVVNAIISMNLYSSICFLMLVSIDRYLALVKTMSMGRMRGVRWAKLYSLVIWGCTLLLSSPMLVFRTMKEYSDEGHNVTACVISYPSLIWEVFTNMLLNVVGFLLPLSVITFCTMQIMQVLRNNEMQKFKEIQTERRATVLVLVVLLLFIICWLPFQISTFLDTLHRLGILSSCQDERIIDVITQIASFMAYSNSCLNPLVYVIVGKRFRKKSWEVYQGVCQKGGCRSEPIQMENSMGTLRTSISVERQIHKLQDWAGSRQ

[7] = target: Histamine H3 receptor (Homo sapiens, UniProt Q9Y5N1)
[8] = target: T5, Thromboxane A2 receptor (Homo sapiens, UniProt P21731); assay type: functional, cell-based
T5 sequence (P21731 whole entry): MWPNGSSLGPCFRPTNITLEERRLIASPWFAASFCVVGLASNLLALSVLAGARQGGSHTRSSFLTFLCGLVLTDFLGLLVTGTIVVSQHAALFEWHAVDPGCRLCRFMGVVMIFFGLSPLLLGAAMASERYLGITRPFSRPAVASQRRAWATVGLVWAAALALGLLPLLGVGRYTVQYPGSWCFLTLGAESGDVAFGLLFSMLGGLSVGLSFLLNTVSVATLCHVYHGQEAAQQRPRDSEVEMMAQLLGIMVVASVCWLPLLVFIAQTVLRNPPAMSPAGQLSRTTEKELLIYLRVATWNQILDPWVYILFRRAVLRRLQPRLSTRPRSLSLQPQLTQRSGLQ

[9] = target: Prostaglandin G/H synthase 1 (Homo sapiens, UniProt P23219); assay type: functional
[10] = target: Gamma-aminobutyric acid receptor subunit alpha-1 (Rattus norvegicus, UniProt P62813)

Measured: AC50
Also: assay procedure not described here.

Sequence of Adenosine receptor A2a (P29274 whole entry): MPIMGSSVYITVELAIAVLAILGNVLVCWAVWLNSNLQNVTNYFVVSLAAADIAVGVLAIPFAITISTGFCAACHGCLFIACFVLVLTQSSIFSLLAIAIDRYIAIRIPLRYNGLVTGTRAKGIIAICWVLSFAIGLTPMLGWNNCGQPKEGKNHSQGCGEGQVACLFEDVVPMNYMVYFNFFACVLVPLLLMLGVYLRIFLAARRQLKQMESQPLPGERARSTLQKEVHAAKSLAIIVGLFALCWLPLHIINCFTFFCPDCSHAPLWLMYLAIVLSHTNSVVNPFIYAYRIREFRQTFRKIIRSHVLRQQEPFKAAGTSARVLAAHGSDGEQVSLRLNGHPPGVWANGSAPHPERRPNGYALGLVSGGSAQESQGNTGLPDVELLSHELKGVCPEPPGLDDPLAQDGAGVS
Sequence of 3',5'-cyclic-AMP phosphodiesterase 4D (Q08499 whole entry): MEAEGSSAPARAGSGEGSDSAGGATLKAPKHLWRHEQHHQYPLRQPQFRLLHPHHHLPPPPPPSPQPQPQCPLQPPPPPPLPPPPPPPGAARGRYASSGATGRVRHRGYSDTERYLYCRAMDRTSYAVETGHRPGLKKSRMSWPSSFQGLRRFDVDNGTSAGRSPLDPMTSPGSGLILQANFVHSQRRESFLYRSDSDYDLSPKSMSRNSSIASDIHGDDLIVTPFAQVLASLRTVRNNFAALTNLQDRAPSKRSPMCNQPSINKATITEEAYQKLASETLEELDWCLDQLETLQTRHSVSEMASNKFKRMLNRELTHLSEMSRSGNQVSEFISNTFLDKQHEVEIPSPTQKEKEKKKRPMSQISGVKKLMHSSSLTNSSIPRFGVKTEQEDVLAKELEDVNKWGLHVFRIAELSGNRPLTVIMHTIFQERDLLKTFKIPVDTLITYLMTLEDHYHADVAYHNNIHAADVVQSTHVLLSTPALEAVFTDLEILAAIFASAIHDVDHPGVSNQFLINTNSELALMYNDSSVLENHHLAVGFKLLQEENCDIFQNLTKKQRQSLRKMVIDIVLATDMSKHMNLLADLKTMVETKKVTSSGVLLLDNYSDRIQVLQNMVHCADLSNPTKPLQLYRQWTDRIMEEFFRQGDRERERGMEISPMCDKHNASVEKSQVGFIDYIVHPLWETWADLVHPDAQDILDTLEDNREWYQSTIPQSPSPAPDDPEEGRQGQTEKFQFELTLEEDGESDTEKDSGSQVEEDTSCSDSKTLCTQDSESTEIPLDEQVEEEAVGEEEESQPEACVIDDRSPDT
Sequence of Gamma-aminobutyric acid receptor subunit alpha-1 (P62813 whole entry): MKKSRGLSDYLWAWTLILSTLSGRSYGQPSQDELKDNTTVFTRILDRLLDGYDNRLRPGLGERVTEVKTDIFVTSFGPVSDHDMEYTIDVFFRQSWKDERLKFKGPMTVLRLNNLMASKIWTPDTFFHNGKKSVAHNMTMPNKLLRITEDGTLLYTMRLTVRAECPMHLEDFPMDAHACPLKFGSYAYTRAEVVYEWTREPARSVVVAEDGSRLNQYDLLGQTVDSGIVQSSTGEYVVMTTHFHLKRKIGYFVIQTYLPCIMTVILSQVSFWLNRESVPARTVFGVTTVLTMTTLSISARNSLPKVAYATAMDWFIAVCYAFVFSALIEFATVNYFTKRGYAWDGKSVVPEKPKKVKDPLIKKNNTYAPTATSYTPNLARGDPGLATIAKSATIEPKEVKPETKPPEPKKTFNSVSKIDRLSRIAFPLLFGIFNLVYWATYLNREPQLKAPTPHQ
Sequence of Prostaglandin G/H synthase 1 (P23219 whole entry): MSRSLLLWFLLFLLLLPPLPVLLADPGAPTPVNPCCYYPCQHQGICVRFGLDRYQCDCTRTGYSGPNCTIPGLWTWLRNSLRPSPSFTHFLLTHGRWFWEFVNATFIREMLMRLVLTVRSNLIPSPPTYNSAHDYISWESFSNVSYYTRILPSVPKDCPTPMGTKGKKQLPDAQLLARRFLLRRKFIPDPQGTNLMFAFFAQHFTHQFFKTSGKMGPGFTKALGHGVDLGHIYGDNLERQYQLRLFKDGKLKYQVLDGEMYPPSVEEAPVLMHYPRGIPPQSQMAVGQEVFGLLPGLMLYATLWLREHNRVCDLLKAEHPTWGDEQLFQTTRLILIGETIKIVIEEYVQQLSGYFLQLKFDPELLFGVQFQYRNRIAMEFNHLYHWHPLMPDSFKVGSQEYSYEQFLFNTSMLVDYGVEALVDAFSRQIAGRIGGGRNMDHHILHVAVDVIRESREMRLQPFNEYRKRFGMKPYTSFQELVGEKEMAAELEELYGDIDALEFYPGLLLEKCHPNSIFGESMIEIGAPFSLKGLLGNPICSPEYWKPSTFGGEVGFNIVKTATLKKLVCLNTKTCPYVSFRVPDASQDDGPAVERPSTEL
Sequence of Histamine H3 receptor (Q9Y5N1 whole entry): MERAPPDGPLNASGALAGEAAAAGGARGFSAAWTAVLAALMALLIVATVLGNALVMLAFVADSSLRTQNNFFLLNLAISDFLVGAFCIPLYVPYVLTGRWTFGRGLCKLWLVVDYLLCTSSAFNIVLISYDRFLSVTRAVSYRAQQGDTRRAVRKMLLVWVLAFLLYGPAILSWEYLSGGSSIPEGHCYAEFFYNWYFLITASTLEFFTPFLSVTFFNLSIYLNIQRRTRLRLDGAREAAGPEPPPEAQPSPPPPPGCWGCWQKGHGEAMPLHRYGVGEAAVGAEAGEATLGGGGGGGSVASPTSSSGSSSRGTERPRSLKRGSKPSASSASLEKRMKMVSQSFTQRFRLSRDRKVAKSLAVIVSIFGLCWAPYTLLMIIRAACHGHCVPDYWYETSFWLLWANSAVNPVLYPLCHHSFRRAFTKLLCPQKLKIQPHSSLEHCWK

CN(C)c1cc(CNCC(C)(C)C)c(O)c2c1C[C@H]1C[C@H]3[C@H](N(C)C)C(O)=C(C(N)=O)C(=O)[C@@]3(O)C(O)=C1C2=O [OMADACYCLINE]
0.25 µM: [9]
24 µM: [7]
> 30 µM: all other assays above
